ChEMBL document CHEMBL1121750, “Adenosine deaminase inhibitors. Conversion of a single chiral synthon into erythro- and threo-9-(2-hydroxy-3-nonyl)adenines” (J Med Chem, 1981)

Target: T1, Adenosine deaminase (Homo sapiens, UniProt P00813)
T1 sequence (P00813 whole entry): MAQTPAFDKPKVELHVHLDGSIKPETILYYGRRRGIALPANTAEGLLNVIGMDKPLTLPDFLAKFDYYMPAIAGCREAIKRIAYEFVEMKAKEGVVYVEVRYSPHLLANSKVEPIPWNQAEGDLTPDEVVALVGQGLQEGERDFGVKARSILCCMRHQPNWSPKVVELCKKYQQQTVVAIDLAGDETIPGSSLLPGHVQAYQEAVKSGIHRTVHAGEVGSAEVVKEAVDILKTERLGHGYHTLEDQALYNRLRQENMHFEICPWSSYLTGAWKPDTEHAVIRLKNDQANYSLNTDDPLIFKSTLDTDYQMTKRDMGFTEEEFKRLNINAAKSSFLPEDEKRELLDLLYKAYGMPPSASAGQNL
Assay: Compound was evaluated for the inhibition of adenosine deaminase

Ki	Structure (SMILES)
80 nM	CCCCCC[C@@H]([C@H](C)O)n1cnc2c(N)ncnc21
122 nM	CCCCCC[C@H]([C@@H](C)O)n1cnc2c(N)ncnc21
500 nM	CCCCCC[C@@H]([C@@H](C)O)n1cnc2c(N)ncnc21 (stereo in doubt; (-)) [EHNA]
0.4 nM	CCCCCC[C@@H]([C@@H](C)O)n1cnc2c(N)ncnc21 (stereo in doubt; erythro) [EHNA]
2 nM	CCCCCC[C@H]([C@H](C)O)n1cnc2c(N)ncnc21 [(+)-EHNA]
0.1 nM	OC[C@H]1O[C@@H](n2cnc3c2N=CNC[C@H]3O)[C@H](O)[C@@H]1O [COFORMYCIN]
